One experiment deals with T1, Oxidized EcDsbA (Escherichia coli, UniProt P0AEG4).
T1 construct: made in house
In words: Isothermal titration calorimetry of compounds into EcDsbA. Format: binding. The settings on record: 25°C. The method, then:
Oxidized EcDsbA was diluted to 50 μM in 25 mM HEPES pH 7.4, 50 mM NaCl and 5% DMSO. Compounds were dissolved in 100% DMSO, and then diluted to a final concentration of 2 mM into 25 mM HEPES pH 7.4 50 mM NaCl with a final DMSO concentration of 5%. All experiments were performed using the MicroCal Auto-ITC200 instrument (GE Healthcare, USA), loading 200 μL of EcDsbA in the sample cell and 40 μL of compound in the syringe. Titrations were set up at 25°C with 19 injections of 2 μL separated by 180 seconds and a constant stirring speed of 1000 rpm. A preliminary injection of 0.5 μL was added to avoid slow leakage of titrant into the sample cell before the first 2 μL injection and the corresponding data point was excluded from analysis. Every compound was tested with three technical replicates. An additional titration of compound into buffer only (25 mM HEPES pH 7.4, 50 mM NaCl and 5% DMSO) was performed to measure the background heat of dilution. Analysis was performed with the MicroCal Origin software (version 7.0552).
Background: In ITC the heat of successive injections is recorded.

The target in a further experiment is PmDsbA. Set-up: method as in PMID 24831013. The settings on record: ITC; cited from earlier work.

Results on 2 compounds are retold here after publication PMC4520593, “Virtual Screening of Peptide and Peptidomimetic Fragments Targeted to Inhibit Bacterial Dithiol Oxidase DsbA” (PLoS ONE, 2015).

T1 sequence (P0AEG4 20-208): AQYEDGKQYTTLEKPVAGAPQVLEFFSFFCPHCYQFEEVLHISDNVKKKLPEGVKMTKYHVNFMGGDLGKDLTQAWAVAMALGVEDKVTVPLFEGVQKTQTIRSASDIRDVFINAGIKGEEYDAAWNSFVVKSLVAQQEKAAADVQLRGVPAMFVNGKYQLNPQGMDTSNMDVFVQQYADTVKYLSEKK

As to `O=C(NCc1ccccc1)[C@H](Cc1c[nH]c2ccccc12)NC(=O)N1CCOCC1` [Compound 1, (S)-2-[N-(Morpholine-1-carbonyl)amino]-3-(1H-indol-3-yl)-N-(benzyl)propanamide], at Oxidized EcDsbA (50 μM EcDsbA, 2 mM compound in syringe, 5% DMSO), the “ITC binding to EcDsbA” value is “little evidence of binding”. The “release of energy for the highest peak (ITC)” value at Oxidized EcDsbA (titration of EcDsbA) is -0.60 µcal/s.

For the compound PWATCDS, on PmDsbA, the Kd is 8.3 ± 0.4 µM, the ΔH is -13.7 ± 0.3 kcal/mol and the ΔS is reported as -22.3±1.1 cal.mol^-1.deg^-1.

For orientation: Kd means the free concentration of one partner at which half of the binding sites on the other are occupied at equilibrium, for simple one-to-one binding.
